According to patent publication US11389473B2, “Magnesium-containing oxytocin formulations and methods of use” (Tonix Pharmaceuticals Holding Corp., priority 2015, dated 2022):

What was measured:
[1] = tested on: rat model of facial thermal nociception; experiment: Rat model of facial thermal nociception (cheek withdrawal latency to radiant heat); format: in vivo; details: for analgesic effect (elevation in latency to withdrawal): 15-300 min
Description: The heat from a projector lamp was focused on the pre-shaved cheek of rats and the intensity was varied to obtain a withdrawal response with a latency of between 6.5 and 8.5 seconds. The intensity applied to achieve such latencies was recorded for each animal. Once stable/acceptable baseline values were obtained, the average latencies for each rat were calculated. After baseline cheek withdrawal latencies were determined for all rats, each rat received a single nasal administration of either normal saline, 15% magnesium chloride in water, or 1% magnesium lactate in water according to the method developed by Frey (Thorne, et al. Neuroscience., 127: 481-496 (2004)). Briefly, rats (under urethane anesthesia) were placed in a supine position with a rolled pad (2×2 gauze) inserted under the dorsal neck to extend the head back toward the supporting surface. The upper surface of the neck was kept horizontal throughout the dosing procedure to maintain the drug solution in the nasal cavity and minimize dripping down the nasopharynx. A 6 μL drop of the respective drug solution was delivered off the tip of a small pipette and presented to the nares on the left side of the rat while occluding the opposite nares. One drop was administered every 2 minutes, alternating between each nares (thus amounting to a four minute interval between doses to the same nares). Each nostril received 4 drops, totaling a combined volume of 48 μL (8 drops of 6 μL each). Drug solutions were coded in order to keep the experimenter blinded as to the substances delivered. Left cheek withdrawal latencies in response to radiant heat stimulation were then measured over the next 3 hours. Withdrawal latencies were measured prior to nasal administration and at 1, 2, and 3 hours post-treatment.
One of 4 concentrations of dibasic magnesium citrate (1:1 Mg/citrate) was applied to rats and the effects of these applications on responses to noxious thermal stimulation of the face were assessed as described above. Each rat received a single nasal administration of 3, 6, 10, or 12% magnesium citrate in water (6 rats/group) according to the method described above. Left cheek withdrawal latencies in response to radiant heat stimulation were then measured over the following 300 minutes. Withdrawal latencies were measured prior to nasal administration and at 15, 30, 45, 60, 120, 180, 240, and 300 min post-treatment.
One of 3 doses of oxytocin in buffered saline was applied to rats and the effects of these applications on responses to noxious thermal stimulation of the face were assessed as described above. Each rat received a single nasal administration of 1, 4, or 8 μg oxytocin in aqueous solution (6 rats/group) according to the method described above. Left cheek withdrawal latencies in response to radiant heat stimulation were then measured over the following 300 minutes. Withdrawal latencies were measured prior to nasal administration and at 15, 30, 45, 60, 120, 180, 240, and 300 min post-treatment.
Aqueous solutions containing a combination of magnesium citrate at one of 3 concentrations with oxytocin at one of 3 doses were applied nasally in rats and changes in withdrawal response latency were measured as above. Each rat received a single nasal administration of 1, 4, or 8 μg of oxytocin in aqueous solution containing 3, 6, or 12% magnesium citrate according to the method described above. Left cheek withdrawal latencies in response to radiant heat stimulation were then measured over the following 300 minutes. Withdrawal latencies were measured prior to nasal administration and at 15, 30, 45, 60, 120, 180, 240, and 300 min post-treatment.
Difference scores were generated for each time point after dosing by comparing the respective withdrawal response latency to pre-dosing (baseline) values.

[2] = tested on: rat paw inflammation model; experiment: Rat paw inflammation model (complete Freund's adjuvant, forepaw force withdrawal threshold); format: in vivo; details: nasal
Description: The analgesic effect of nasally administered oxytocin on cervical nerve-associated inflammatory pain was assessed in a rat paw inflammation model (Martin et al., Pain 1999, 82:199-205). Oxytocin was nasally administered at one of three doses (193, 385 or 768 micrograms in 48 microliters) and force withdrawal thresholds in grams were determined following mechanical stimulation of the inflamed area (forepaw), at regular intervals over the next three hours, and compared against those of vehicle (phosphate buffered saline) treated rats. Injection of complete Freund's adjuvant into the left forepaw of rats produced a robust inflammation of that paw as well as a substantial decrease in the force necessary to elicit a withdrawal response (mechanical allodynia).

[3] = tested on: patient with chronic tension-type headache; experiment: Patient with chronic tension-type headache, neck and shoulder pain taking oxytocin sprays; format: in vivo, human
From the text: A patient with chronic tension-type headache reported having intense pain in their head, neck and shoulders. The patient took 4 sprays of 7.5 IU/spray oxytocin for a dose of 30 units, at which point their headache pain was gone, but the neck and shoulder pain remained. […] Thus, a higher dose was necessary to affect neck and shoulder pain than was necessary to inhibit head pain in the same patient.

[4] = 1% in water, single nasal administration
[5] = 4 sprays of 7.5 IU/spray, dose of 30 units

[Cl-].[Cl-].[Mg+2] [magnesium chloride]
analgesia at 2 and 3 hours after dosing ([1]; 15% in water, single nasal administration): analgesia continuing | analgesic effect compared to nasal saline treated rats ([1]; 15% in water, single nasal administration, 1 hour): strong analgesic effect

CC(O)C(=O)[O-].CC(O)C(=O)[O-].[Mg+2] (centres unmarked) [magnesium lactate]
analgesic effect [1, 4]: mild analgesic effect | withdrawal latencies at the 2 and 3 hour time points [1, 4]: still substantially elevated | rise in withdrawal response latency ([1]; 1% in water, single nasal administration, 48 μL): approximately 1.5 s

CC[C@H](C)[C@@H]1NC(=O)[C@H](Cc2ccc(O)cc2)NC(=O)[C@@H](N)CSSC[C@@H](C(=O)N2CCC[C@H]2C(=O)N[C@@H](CC(C)C)C(=O)NCC(N)=O)NC(=O)[C@H](CC(N)=O)NC(=O)[C@H](CCC(N)=O)NC1=O [oxytocin, Cys-Tyr-Ile-Gln-Asn-Cys-Pro-Leu-Gly]
withdrawal latency ([1]; 1 μg nasally applied): no increase | analgesic effect (elevation in latency to withdrawal) ([1]; 1, 4 or 8 μg in aqueous solution, single nasal administration): clear dose-dependent analgesic effect | latency to withdrawal in response to noxious cheek heating ([1]; 4 and 8 μg nasally applied): robust increase in latency to withdrawal | effect on mechanical allodynia resulting from inflammation ([2]; higher 2 doses, 385 or 768 micrograms in 48 microliters): statistically significant partial reversal of the mechanical allodynia | effect on pain thresholds (force withdrawal threshold, inflamed forepaw) ([2]; lowest dose, 193 micrograms in 48 microliters): ineffective | headache pain [3, 5]: gone | neck and shoulder pain [3, 5]: remained | neck and shoulder pain ([3]; additional 8-10 sprays, or a total of 60-75 IU): receded and ceased

magnesium citrate
analgesic effect (elevation in latency to withdrawal) ([1]; 3, 6, 10 or 12% in water, single nasal administration): clear dose-dependent analgesic effect
